Key:
[1] = tested on: A427 cells; assay: CellTiter-Glo cell cytotoxicity, A427; type: cell-based; conditions: A-427, 72 h, A427 human lung carcinoma, 1 copy of KRAS(G12D), read-out: A427 72H CTG
Protocol: (§1) The following cancer cell lines were employed: A427 human lung carcinoma [1 copy of KRAS(G12D)] (ATCC, #HTB-53); AGS human gastric adenocarcinoma [1 copy of KRAS(G12D)] (ATCC, #CRL-1739); and AsPC-1 human adenocarcinoma [2 copies of KRAS(G12D)] (ATCC, CRL-1682). Cell lines were cultured essentially according to American Type Culture Collection (ATCC) recommendations.
A427 and AGS cells were plated in 96-well tissue culture plates at 4,000 cells/well and incubated at 37° C/5% CO2 for 72 hr in 100 μl of media. 3-fold serial dilutions of each test compound were prepared ranging from 20 μM to 1.02 nM. Each cell line was then treated with test compounds at various concentrations with a final concentration of 0.5%
(§2) […] 100 Ill of CellTiter-Glo® Reagent (Promega Corporation, Madison, WI) was added to each well and processed according manufacturer's protocol. Results were analyzed and IC50 values were calculated in GraphPad 7 software.

[2] = tested on: AGS cells; assay: CellTiter-Glo cell cytotoxicity, AGS; type: cell-based; conditions: AGS human gastric adenocarcinoma, 1 copy of KRAS(G12D), read-out: AGS 72H CTG
Protocol: as §1
A427 and AGS cells were plated in 96-well tissue culture plates at 4,000 cells/well and incubated at 37° C/5% CO2 for 72 hr in 100 μl of media. 3-fold serial dilutions of each test compound were prepared ranging from 20 μM to 1.02 nM. […]
as §2

[3] = target: T1, KRAS(G12D)-SOS1 (Homo sapiens, UniProt P01116, G12D); assay: KRAS(G12D)/SOS1 HTRF binding assay; conditions: absence of GTP; 4° C. for 3 hr
T1 construct: purchased Cisbio 63ADK000CB16PEG
T1 sequence (P01116 1-188 isoform P01116-2 G12D): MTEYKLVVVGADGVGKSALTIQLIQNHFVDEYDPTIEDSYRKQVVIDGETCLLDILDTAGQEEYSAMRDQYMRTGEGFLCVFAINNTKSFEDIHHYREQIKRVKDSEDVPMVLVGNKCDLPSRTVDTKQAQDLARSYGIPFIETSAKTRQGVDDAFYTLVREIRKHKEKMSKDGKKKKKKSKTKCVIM
Protocol: Binding of test compounds to KRAS(G12D) target protein, which in turn blocks KRAS(G12D) interaction with the SOS1 protein, was measured in the absences of GTP by homogeneous time-resolved fluorescence using the KRAS-G12D/SOS1 Binding Assay Kit (Cisbio, #63ADK000CB16PEG), following the manufacturer's instructions, except as noted. 3-fold serial dilutions of each test compound were prepared ranging from 20 μM to 1.02 nM. The test compound was mixed and incubated with reaction components, incubated in a sealed plate at 4° C. for 3 hr and fluorescence was measured using a PerkinElmer Envision plate reader. The KRAS(G12D)-SOS1 IC50 values (the concentration of 50% of the maximal inhibition) were calculated using GraphPad Prism 7 software.

[4] = Oral bioavailability in CD-1 mice; conditions: male, CD-1, mouse, blood, 50 mg/kg
Protocol: (§3) CD-1 mice were randomly assigned to δgroups with 3 male mice in each compound group. […] Compounds were orally administered (PO) in a single dose to each mouse in its group. Blood samples were taken within 72 hours. Bioavailability (F%) was determined and by liquid chromatography-mass spectrometry (LC-MS/MS).

[5] = in vivo; conditions: male, CD-1, mouse, po, 50 mg/kg
Protocol: as §3

Row | Structure (SMILES) | IC50 [1] | IC50 [2] | bioavailability [4] | further results
1 | C#Cc1c(F)ccc2cc(O)cc(-c3ncc4c(N5CC6CCC(C5)N6C(=O)C(F)(F)F)nc(OCC5(CN6CCC(F)CC6)CC5)nc4c3F)c12 [drawing 110] | 0.001 to 0.1 µM | 0.001 to 0.1 µM | – | IC50 [3]: 0.001 to 0.1 µM
2 | C#Cc1c(F)ccc2cc(O)cc(-c3ncc4c(N5CC6CCC(C5)N6)nc(OC[C@]56CCCN5C[C@@H](F)C6)nc4c3F)c12 | – | – | 0.45% | –
3 | C#Cc1c(F)ccc2cc(O)cc(-c3ncc4c(N5CC6CCC(C5)N6C(=O)C(F)(F)F)nc(OCC5(CN6CC7CC7C6)CC5)nc4c3F)c12 (stereo not drawn) [drawing 114] | 1 to 10 µM | 0.001 to 0.1 µM | – | –
4 | C#Cc1c(F)ccc2cc(O)cc(-c3ncc4c(N5CC6CCC(C5)N6)nc(OCC5(CN6CC7CC7C6)CC5)nc4c3F)c12 (stereo not drawn) [drawing 121] | – | – | 0.47% | –
5 | C#Cc1c(F)ccc2cc(O)cc(-c3ncc4c(N5CC6CCC(C5)N6C(=O)C(F)(F)F)nc(OCC5(CN6CC7CC7C6)CC5)nc4c3F)c12 (stereo not drawn) [drawing 120] | – | – | – | bioavailability [5]: 17.4%
6 | C#Cc1c(F)ccc2cc(O)cc(-c3ncc4c(N5CC6CCC(C5)N6)nc(OCC5(CN6CCC(F)CC6)CC5)nc4c3F)c12 [drawing 111] | 0.001 to 0.1 µM | 0.001 to 0.1 µM | – | –
7 | C#Cc1c(F)ccc2cc(O)cc(-c3ncc4c(N5CC6CCC(C5)N6)nc(OCC5(CN6CCC(F)CC6)CC5)nc4c3F)c12 [drawing 117] | – | – | 0.82% | –
8 | C#Cc1c(F)ccc2cc(O)cc(-c3ncc4c(N5CC6CCC(C5)N6C(=O)C(F)(F)F)nc(OC[C@]56CCCN5C[C@@H](F)C6)nc4c3F)c12 [drawing 112] | 1 to 10 µM | 0.001 to 0.1 µM | – | –
9 | C#Cc1c(F)ccc2cc(O)cc(-c3ncc4c(N5CC6CCC(C5)N6)nc(OCC5(CN6CC7CC7C6)CC5)nc4c3F)c12 (stereo not drawn) [drawing 115] | 0.001 to 0.1 µM | 0.001 to 0.1 µM | – | IC50 [3]: 0.001 to 0.1 µM
10 | C#Cc1c(F)ccc2cc(O)cc(-c3ncc4c(N5CC6CCC(C5)N6C(=O)C(F)(F)F)nc(OCC5(CN6CCC(F)CC6)CC5)nc4c3F)c12 [drawing 116] | – | – | 12.4% | –
11 | C#Cc1c(F)ccc2cc(O)cc(-c3ncc4c(N5CC6CCC(C5)N6C(=O)C(F)(F)F)nc(OC[C@]56CCCN5C[C@@H](F)C6)nc4c3F)c12 [drawing 118] | – | – | 15.8% | –
